Results on eleven compounds are retold here after patent US5808139A (Ligand Pharmaceuticals Incorporated, priority 1994, dated 1998).

Assay [1] has as its system endometrium of the uterus. Put plainly: Decidualization assay in pseudopregnant mice, oil-induced uterine weight gain. In kind it is in vivo. Conditions: for Inhibition of decidualization weight gain: vs oil control; for Net Uterine Weight Gain: intraluminal, autopsy Day 7, oil alone control 334.7 +/- 41.0. As to the method: A successful pregnancy requires not only the effective collision and fusion of egg and spermatozoon, but also the provision of a receptive and supportive uterus. The preparation of the endometrium of the uterus for implantation (i.e. decidualization) starts well before the blastocyst arrives in the uterus.
Psuedopregnant mice (i.e. mated with vasectomized males) were used to establish the assay system. […] At 16 hours of Day 4, a small volume of sesame oil (10 μl) was introduced to the lumen of the right uterine horn to serve as a decidual stimulus. The left horn was left undisturbed to serve as an internal control. Autopsies were performed on Day 7 to assess uterine wet weight gains in the stimulated versus non-stimulated uterine horns.
Each of these compounds was intraluminally administered in an appropriate dosage on Day 4 along with the sesame oil administration.

The subject of assay [2] is progesterone receptor (T47D cells). The experiment in a line: Antagonist assay in T47D (human breast cancer) cells (Tables 1 and 2). Type of assay: cell-based. Conditions: for Efficacy (% maximal response relative to RU-486), T47D cells: antagonist activity; for IC50: concentration required to reduce the maximal response by 50%, read-out: Potency (IC50), T47D cells. The source says: The functional activities of the cyclocymopol analogues in the human breast cell line, T47D, were also investigated. T47D cells have proven to be a particularly useful model to investigate the molecular actions of sex steroids because they contain endogenous functional receptors for, and respond to, progestins, and their respective antagonists. […] In T47D cells, progestins induce de novo synthesis of a plasma-associated alkaline phosphatase, which has been reported to be similar, if not identical, to the alkaline phosphatase present in the normal breast and human milk. These tests were conducted according to the following illustrative example.
The assay was also run using T47D (human breast cancer) cells.

Assay [3] has as its system human progesterone receptor altered at the Tau-1 location. Put plainly: Co-transfection assay in CV-1 cells, progesterone receptor altered at Tau-1, antagonist activity. Type of assay: cell-based. To be noted: for Efficacy (% maximal response relative to RU-486), CV-1 cells: antagonist activity; for IC50: concentration required to reduce the maximal response by 50%, read-out: Potency (IC50), CV-1 cells. The source says: This assay is described in further detail in U.S. Pat. Nos. 4,981,784 and 5,071,773, which are incorporated herein by reference. The co-transfection assay provides a method for identifying functional ligands (either agonists which mimic, or antagonists which inhibit, the effect of hormones) for ligand-responsive receptor proteins.
The co-transfection assay provides a mechanism to evaluate ability of a compound to function as an agonist or antagonist of the activity modulated by an intracellular receptor. The co-transfection assay mimics an in vivo system in the laboratory. In the co-transfection assay, a cloned gene for an intracellular receptor is introduced by transfection (a procedure to induce cells to take up foreign genes) into a background cell substantially devoid of endogenous intracellular receptors. This introduced gene directs the recipient cells to make the intracellular receptor protein. A second gene is also introduced (co-transfected) into the same cells in conjunction with the intracellular receptor gene. This second gene functions as a reporter for the transcription-modulating activity of the target intracellular receptor. The reporter acts as a surrogate for the products normally expressed by a gene under control of the target receptor and its natural hormone.
A preferred reporter gene is one which expresses the firefly enzyme luciferase. The co-transfection assay can detect small molecule agonists or antagonists of target intracellular receptors. Exposing the cells to an agonist ligand increases reporter activity in the transfected cells that can be conveniently measured, reflecting ligand-dependent, intracellular receptor-mediated increases in reporter transcription. To detect antagonists, the co-transfection assay is carried out in the presence of a constant concentration of an agonist known to induce a defined reporter signal. Increasing concentrations of a test antagonist will decrease the reporter signal. The co-transfection assay is therefore useful to detect both agonists and antagonists of specific intracellular receptors. It determines not only whether a compound interacts with a particular intracellular receptor, but also whether this interaction mimics (agonizes) or blocks (antagonizes) the effects of the natural regulatory molecules on target gene expression.
Co-transfected cells are exposed to a medium to which is added the potential ligand that is being evaluated. If the candidate ligand diffuses into the cell and binds to the receptor and the resulting complex functions as an agonist, it binds to the co-transfected reporter gene and initiates transcription. When that gene is one that expresses, for example, luciferase, luciferase is produced which catalyzes a light-emitting reaction with its substrate luciferin. Thus, after cell lysis and the introduction of luciferin, the amount of light produced relative to the concentration of candidate ligand used in the assay provides a measure of the potency and efficacy of the compound tested. Antagonist activity is evaluated by adding the candidate ligand and a known agonist to the co-transfected cells.
The receptor cDNA was introduced in a mammalian expression vector under the control of the Rous Sarcoma virus LTR. […] A reporter vector was also transfected, containing a firefly luciferase gene under the control of the hormone-responsive promoter. […] The level of luciferase activity was then measured in cell extracts. Light emission is directly proportional to the effectiveness of the hormone-receptor complex in activating gene expression.
A total of three replicates per concentration point were tested for each compound, and the EC50 was calculated for each positive response. Both agonist and antagonist activity for each test compound was determined in parallel. […]

Assay [4] deals with T1, human progesterone receptor (Homo sapiens, UniProt P06401).
T1 sequence (P06401 1-933): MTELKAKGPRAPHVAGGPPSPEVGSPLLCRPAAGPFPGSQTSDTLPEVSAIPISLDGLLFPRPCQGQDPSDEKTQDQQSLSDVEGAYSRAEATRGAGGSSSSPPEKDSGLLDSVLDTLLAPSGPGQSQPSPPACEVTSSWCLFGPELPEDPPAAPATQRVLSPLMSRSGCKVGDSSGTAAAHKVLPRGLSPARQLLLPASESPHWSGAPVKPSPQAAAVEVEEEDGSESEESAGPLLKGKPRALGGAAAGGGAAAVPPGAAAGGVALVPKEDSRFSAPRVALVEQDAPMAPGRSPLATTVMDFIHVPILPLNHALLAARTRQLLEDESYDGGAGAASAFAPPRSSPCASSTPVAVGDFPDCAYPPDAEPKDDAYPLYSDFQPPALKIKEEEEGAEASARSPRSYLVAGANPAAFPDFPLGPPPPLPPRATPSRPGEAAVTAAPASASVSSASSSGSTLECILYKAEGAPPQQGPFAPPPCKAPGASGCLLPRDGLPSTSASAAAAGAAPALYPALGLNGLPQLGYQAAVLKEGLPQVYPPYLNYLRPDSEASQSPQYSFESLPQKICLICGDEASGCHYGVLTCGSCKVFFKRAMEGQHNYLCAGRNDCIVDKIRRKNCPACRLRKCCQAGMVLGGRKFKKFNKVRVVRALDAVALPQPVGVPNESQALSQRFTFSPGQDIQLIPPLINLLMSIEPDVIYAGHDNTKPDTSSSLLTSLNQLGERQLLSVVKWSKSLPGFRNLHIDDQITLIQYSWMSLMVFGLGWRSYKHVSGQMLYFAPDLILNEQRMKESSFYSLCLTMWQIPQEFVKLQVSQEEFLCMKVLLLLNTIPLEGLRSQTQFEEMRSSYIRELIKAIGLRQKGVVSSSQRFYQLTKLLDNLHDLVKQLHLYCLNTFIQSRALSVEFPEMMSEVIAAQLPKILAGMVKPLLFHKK
The experiment in a line: Progesterone receptor binding (displacement of 3H-progesterone, whole cell extract of transfected CV-1 cells). Also noted: expressed in transfected cells; host or cells: CV-1 cells (calcium phosphate transfection), whole cell extract. As to the method:
These tests were conducted according to the following illustrative example.
CO2 for 40 hours prior to harvest.
After incubation, cells were harvested and washed in phosphate buffered saline. Whole cell receptor extract was prepared by homogenizing the harvested cells in Tris-HCl buffer, pH=7.4, containing 30% glycerol, 1 mM EDTA, 12 mM monothioglycerol, 1 mM PMSF, and 0.5M potassium chloride. The homogenate was incubated at 4° C. for 60 min with resuspension every 10 min. The suspension was centrifuged (105,000×g, 60 min) and the supernatant was collected and flash frozen in liquid nitrogen and stored frozen at -70° C.
To a […] final volume incubation mixture, […] of 7.5% (w/v) dextran-coated charcoal suspension in gelatin phosphate buffer was added. The mixture was vortexed and incubated at 4° C. for 10 min and then centrifuged at 3000 rpm for 10 min. The amount of bound tritiated hormone was determined by liquid scintillation spectrophotometry of an aliquot of the supernatant. […]

On to `C=C1CCCC(C)(C)C1Cc1cc(OC)c(Br)cc1O` (stereo in doubt) [J, (3R)-1-Debromocyclocymopol monomethyl ether], for which, in assay [1] (5 mg), the “Inhibition of decidualization weight gain” value is recorded as around 91% and the “Net Uterine Weight Gain” value worked out at 30.7 ± 16.2 mg. For the same compound, the “Efficacy (% maximal response relative to RU-486), T47D cells” value in assay [2] is 85%. The “Efficacy (% maximal response relative to RU-486), CV-1 cells” value in assay [3] is listed as 95%.

Take `CN(C)c1ccc([C@H]2C[C@]3(C)[C@@H](CC[C@]3(O)CCCO)[C@@H]3CCC4=CC(=O)CCC4=C32)cc1` [ZK299, reference compound]: in assay [1] (0.1 mg), the “Inhibition of decidualization weight gain” value is “approximately 88%” and the “Net Uterine Weight Gain” value was 41.1 ± 21.0 mg.

For `C=C1C=CCC(C)(C)C1Cc1cc(OC)c(Br)cc1OC(C)=O` (stereo not drawn) [L, 1-Methylidene-6-(2'-acetoxy-4'-bromo-5'-methoxyphenyl)methyl-5,5-dimethylcyclohex-2-ene], in assay [2], the “Efficacy (% maximal response relative to RU-486), T47D cells” value was determined as 75% and the IC50 worked out at 200 nM. Further, in assay [3], the “Efficacy (% maximal response relative to RU-486), CV-1 cells” value is given as 55% and the IC50 amounted to 825 nM. Further, the Kd in assay [4] was 90 nM.

Turning to `C=C1CCCC(C)(C)C1Cc1cc(OC)c(Br)cc1OC(=O)OC` (stereo in doubt) [R, (3R)-1-Debromocyclocymopol monomethyl ether, methyl carbonate], in assay [2], the “Efficacy (% maximal response relative to RU-486), T47D cells” value is recorded as 85% and the IC50 is 250 nM. In addition, in assay [3], the “Efficacy (% maximal response relative to RU-486), CV-1 cells” value was 95% and the 50% inhibitory concentration (IC50) amounted to 1220 nM. Also, the Kd in assay [4] came out at 230 nM.

On to `O=C1CCCCC1Cc1ccc([N+](=O)[O-])cc1` (stereo not drawn) [F, 2-(4'-Nitrophenyl)methylcyclohexan-1-one], for which, in assay [2], the “Efficacy (% maximal response relative to RU-486), T47D cells” value worked out at 80% and the IC50 was 200 nM. In assay [3], the “Efficacy (% maximal response relative to RU-486), CV-1 cells” value came out at 100% and the IC50 amounted to 550 nM. Besides, the equilibrium dissociation constant (Kd) in assay [4] amounted to 925 nM.

On to `C=C1C[C@H](CCC2OCCO2)CC(C)(C)[C@@H]1Cc1cc(OC)c(Br)cc1O` (relative stereo) [W, cis-1-Methylidene-2-(2'-hydroxy-4'-bromo-5'-methoxyphenyl)methyl-3,3-dimethyl-5-(propanal-1,3-dioxolane)cyclohexane], for which, in assay [2], the “Efficacy (% maximal response relative to RU-486), T47D cells” value stood at 85% and the 50% inhibitory concentration (IC50) amounted to 380 nM. For the same compound, in assay [3], the “Efficacy (% maximal response relative to RU-486), CV-1 cells” value was found to be 85% and the half-maximal inhibitory concentration (IC50) stood at 2900 nM. Moreover, in assay [4], the Kd is 362 nM.

Consider `C=C1CCCC(C)(C)C1Cc1cc(OC)c(Br)cc1OC(C)=O` (racemic) [A, 1-Methylidene-2-(2'-acetoxy-4'-bromo-5'-methoxyphenyl)methyl-3,3-dimethylcyclohexane], for which, in assay [2], the “Efficacy (% maximal response relative to RU-486), T47D cells” value is given as 70% and the IC50 worked out at 200 nM. Besides, in assay [3], the “Efficacy (% maximal response relative to RU-486), CV-1 cells” value amounted to 55% and the IC50 stood at 225 nM. For the same compound, in assay [4], the dissociation constant (Kd) is 100 nM.

As for `C=C1CC[C@@H](Br)C(C)(C)[C@@H]1Cc1cc(OC)c(C=O)cc1O` [NN, (3R)-4'-Formylcyclocymopol monomethyl ether], in assay [2], the “Efficacy (% maximal response relative to RU-486), T47D cells” value stood at 83% and the IC50 came to 1800 nM. Moreover, in assay [3], the “Efficacy (% maximal response relative to RU-486), CV-1 cells” value is given as 31% and the IC50 came to 2100 nM. Further, the dissociation constant Kd in assay [4] came to 409 nM.

In the case of `C=C1CCCC(C)(C)C1Cc1cc(OC)c(Br)cc1OC(=O)OC` (stereo in doubt) [Compound D, (3S)-1-Debromocyclocymopol monomethyl ether, methyl carbonate], in assay [2], the “Efficacy (% maximal response relative to RU-486), T47D cells” value was 55% and the IC50 stood at 150 nM. In addition, in assay [3], the “Efficacy (% maximal response relative to RU-486), CV-1 cells” value stood at 45% and the IC50 was found to be 450 nM. Also, the Kd in assay [4] was 50 nM.

For the compound `C=C1C=CCC(C)(C)C1Cc1ccc([N+](=O)[O-])c(C)c1` (stereo not drawn) [M, 1-Methylidene-6-(3'-methyl-4'-nitrophenyl)methyl-5,5-dimethylcyclohex-2-ene], in assay [2], the “Efficacy (% maximal response relative to RU-486), T47D cells” value worked out at 80% and the IC50 amounted to 350 nM. Also, in assay [3], the “Efficacy (% maximal response relative to RU-486), CV-1 cells” value came to 90% and the IC50 amounted to 875 nM. Further, the Kd in assay [4] worked out at 75 nM.

Regarding `C=C1C=C[C@@H](C)C(C)(C)[C@@H]1Cc1cc(OC)c(Br)cc1OC(C)=O` (relative stereo) [N, trans-1-Methylidene-6-(2'-acetoxy-4'-bromo-5'-methoxyphenyl)methyl-4,5,5-trimethylcyclohex-2-ene], in assay [2], the “Efficacy (% maximal response relative to RU-486), T47D cells” value worked out at 70% and the IC50 came out at 325 nM. Besides, in assay [3], the “Efficacy (% maximal response relative to RU-486), CV-1 cells” value came to 90% and the IC50 came to 1000 nM. Further, the Kd in assay [4] stood at 195 nM.
